The results in this text go back to patent publication US12036197B2, “Composition for improving bioavailability of drugs” (priority 2019, dated 2024).

SMILES strings stand for the structures. Where two headings read alike, the source gives them in different places. Where a SMILES comes first, the peptide text is derived from it. Bridges are numbered along the chain shown (N, C = ends). [ ]: non-standard residue; d: D form.

The conditions of series [1]: rat, in vivo.
Series [2] in a line: in vivo. The note with it: male, SD, rat.
Details of series [3]: species or system SD rats. The note with it: rat, in vivo. An excerpt: Laboratory Animals: Adult Male SD Rats.
The plasma was collected and subjected to quick freezing.

Regarding `CC[C@H](C)[C@H](NC(=O)[C@H](CO)NC(=O)[C@H](CCCCN)NC(=O)CNC(=O)[C@H](CCCCN)NC(=O)[C@H](CC(=O)O)NC(=O)[C@H](Cc1cnc[nH]1)NC(=O)[C@H](CC(C)C)NC(=O)[C@H](CC(C)C)NC(=O)[C@H](CCC(N)=O)NC(=O)[C@H](Cc1cnc[nH]1)NC(=O)[C@H](CCC(=O)O)NC(=O)[C@H](CO)NC(=O)[C@@H](NC(=O)[C@H](C)N)C(C)C)C(=O)N[C@@H](CCC(N)=O)C(=O)N[C@@H](CC(=O)O)C(=O)N[C@@H](CC(C)C)C(=O)N[C@@H](CCCNC(=N)N)C(=O)N[C@@H](CCCNC(=N)N)C(=O)N[C@@H](CCCNC(=N)N)C(=O)N[C@@H](CCC(=O)O)C(=O)N[C@@H](CC(C)C)C(=O)N[C@@H](CC(C)C)C(=O)N[C@@H](CCC(=O)O)C(=O)N[C@@H](CCCCN)C(=O)N[C@@H](CC(C)C)C(=O)N[C@@H](CC(C)C)C(=O)NC(C)(C)C(=O)N[C@@H](CCCCN)C(=O)N[C@@H](CC(C)C)C(=O)N[C@@H](Cc1cnc[nH]1)C(=O)N[C@H](C(=O)N[C@@H](C)C(N)=O)[C@@H](C)O` [Abaloparatide], the bioavailability in series [1] came out at 1.66%.
Take `CC(C)[C@@H]1NC(=O)[C@H](CCCCN)NC(=O)[C@@H](Cc2c[nH]c3ccccc23)NC(=O)[C@H](Cc2ccc(O)cc2)NC(=O)[C@@H](NC(=O)[C@H](N)Cc2ccccc2)CSSC[C@@H](C(=O)N[C@@H](Cc2c[nH]c3ccccc23)C(N)=O)NC1=O` [Vapreotide] (H-[dF]CY[dW]KVCW-NH2; disulfide 2-7): the bioavailability in series [2] turned out to be 1.69%.
Turning to `CC[C@H](C)[C@@H]1NC(=O)[C@H](CCCNC(=N)N)NC(=O)[C@H](CC(=O)O)NC(=O)[C@H](CCSC)NC(=O)[C@H](CCCCN)NC(=O)[C@H](CCCNC(=N)N)NC(=O)CNC(=O)[C@H](Cc2ccccc2)NC(=O)[C@@H](NC(=O)CNC(=O)[C@H](CO)NC(=O)CNC(=O)[C@H](CCC(N)=O)NC(=O)[C@@H](NC(=O)[C@H](CCSC)NC(=O)[C@H](CCCCN)NC(=O)[C@@H]2CCCN2C(=O)[C@@H](N)CO)C(C)C)CSSC[C@@H](C(=O)N[C@@H](CCCCN)C(=O)N[C@H](C(=O)N[C@@H](CC(C)C)C(=O)N[C@@H](CCCN=C(N)N)C(=O)N[C@@H](CCCN=C(N)N)C(=O)N[C@@H](Cc2cnc[nH]2)C(=O)O)C(C)C)NC(=O)CNC(=O)[C@H](CC(C)C)NC(=O)CNC(=O)[C@H](CO)NC(=O)[C@H](CO)NC(=O)[C@H](CO)NC(=O)[C@H](CO)NC1=O` [Nesiritide], in series [3], the bioavailability turned out to be 1.22%.
